Laboratory results as given in patent publication US20120322125A1, “CONTROL OF CONTAMINANT MICROORGANISMS IN FERMENTATION PROCESSES WITH SYNERGISTIC FORMULATIONS CONTAINING PEROXIDE COMPOUND AND QUATERNARY AMMONIUM COMPOUND” (E. I. DU PONT DE NEMOURS AND COMPANY, priority 2010, published 2012).

Assays:
[1] = tested on: lactic acid bacteria (LAB) species (Lactobacillus brevis, Lactobacillus plantarum, Lactobacillus paracasei); test: Viable count of lactic acid bacteria cocktail in treated molasses medium; format: cell-based; settings: for Viable Population: LAB in molasses medium, 32° C.
Method: (§1) A fermentation broth was prepared by diluting 1 part molasses with 3 parts water as is commonly practiced in molasses-based fermentation processes. A cocktail of three lactic acid bacteria (LAB) species (Lactobacillus brevis, Lactobacillus plantarum, Lactobacillus paracasei) was concurrently prepared by growing an overnight culture of each bacteria in deMann-Rogosa-Sharpe (MRS) broth (available from Difco Laboratories, Inc., Sparks, Md.) at 32° C. in a shaking incubator, then combining the broth to make up a mixed culture. A separate overnight culture of Saccharomyces cerevisiae (inoculant yeast) was prepared by growing an overnight culture in Yeast Peptone Dextrose (YPD) broth (available from Difco Laboratories Inc., Sparks, Md.). A potion of the molasses medium was inoculated with the cocktail of LAB to result in approximately 1×10^6 colony forming units (CFU) per ml of medium. A separate portion was inoculated with the yeast to result in approximately 6×10^5 CFU/ml. Portions of the inoculated molasses medium were treated with hydrogen peroxide (HP), quaternary ammonium compound (didecyl dimethyl ammonium chloride) or combinations of the two as outlined below:
(§2) Treated samples were incubated at 32° C. in a shaking incubator, following which serial dilutions were made in phosphate buffered saline (PBS) before plating the dilutions on MRS agar and Potato Dextrose Agar (PDA) plates for viable count determination. The plates were incubated at 32° C. for 48 hrs.

[2] = tested on: Saccharomyces cerevisiae (inoculant yeast); test: Viable count of inoculant yeast in treated molasses medium; format: cell-based; settings: for Viable Population: S. cerevisiae in molasses medium, 32° C.
Method: as §1, §2

Row | SMILES | Viable Population ([1]; 75 ppm HP) | reduction of the viable LAB population ([1]; 100 ppm HP by itself) | Viable Population ([1]; 100 ppm HP) | reduction of the LAB population ([1]; 100 ppm QAC by itself) | Viable Population ([1]; 100 ppm QAC) | Viable Population ([1]; 150 ppm QAC) | Viable Population ([2]; 100 ppm QAC) | Viable Population ([2]; 150 ppm QAC) | effects on the viability of the inoculant yeast ([2]; similar concentrations of QAC and HP, alone or combined)
1 | OO [HP, hydrogen peroxide] | 4.5 × 10^5 CFU/ml | about 1 log CFU/ml | 8.1 × 10^4 CFU/ml | – | – | – | – | – | –
2 | CCCCCCCCCC[N+](C)(C)CCCCCCCCCC.[Cl-] [QAC, didecyl dimethyl ammonium chloride] | – | – | – | did not reduce | 1.19 × 10^6 CFU/ml | 1.16 × 10^6 CFU/ml | 5.0 × 10^5 CFU/ml | 3.5 × 10^5 CFU/ml | did not have any significant effects
